Laboratory results published in patent publication US20030005484A1, “Microbiocidal and pesticidal aromatic aldehydes” (ProGuard, Inc., priority 1994, published 2003).
Where “and” joins values, the source holds several entries; their conditions need not be identical. Equal entries are not always repeated.

Tests used:
[1] = system: Fusarium subglutinans f. sp. pini; assay: radial growth on amended potato dextrose agar; type: cell-based; settings: controls: Saponin alone, 5 ppm Benomyl, Glutaraldehyde 2%; five days at 18° C
Experimental: A double-blind bioassay was undertaken using cinnamic aldehyde in various concentrations and formulations. The bioassay was based on inhibition of radial growth of Fusarium subglutinans f. sp. pini. Eight ml of formulation (concentration unknown) was pipetted into 200 ml of molten 2% potato dextrose agar (PDA) and the mixture was dispersed into five plastic petri dishes (25 ml dish). Each of four plates was inoculated at the center with an agar plug transferred from a growing PDA culture of Fusarium subglutinans f. sp. pini (isolate SL-1, UCB), while the fifth plate was left noninoculated as a control. These steps were repeated for each formulation of the cinnamic aldehyde. As a positive control, four PDA plates amended with 5 ppm benomyl were inoculated. as described; the negative control was four unamended PDA plates that were inoculated with F. subglutinans. All inoculated and non-inoculated plates were incubated at 18° C. for five days, after which colony diameters were measured.

grape phylloxera eggs = assay: whole plant or invertebrate; settings: for nymphs that died in the shell (DIS): controls: Carbofuran 10 ppm, malathion 250 ppm, 7 days; for approximate egg hatch LD 50: egg tests with CNMA analogs
Experimental: Mixed age groups of 60 grape phylloxera eggs were established on filter paper (Whatman #1, 5.5 cm circles) in 50×9 mm sealed plastic petri dishes treated with 100 μl of solution. A selected concentration of a test formulation of 400 μl was added to the filter disk and the dish closed with the petri dish cover and placed in a plastic container box. After 6 hours, the box was placed in an environmental chamber at 24° C. in the dark. The eggs were placed in groups of 10. After one week, the percentage of hatch is determined. In an initial test, doses from 0.1 to 25,000 ppm cinnamic aldehyde in 6% NaHCO3 and 2% Tween 80 were evaluated with a single group of eggs at each dosage. Three replicates of the experiment were performed. […] LD50 and LD95 were determined by probit analysis.
Grape phylloxera eggs were treated with cinnamaldehyde (CNMA) in a 6% NaHCO3, 2% Tween-80 formulation in a laboratory bioassay. Mortality of the eggs was indicated by failure of the egg shell to split. […] Leaves of one-year-old greenhouse Vitis vinifera cultivar Merlot vines heavily infested with grape phylloxera were sprayed to run-off with a CNMA treatment using the same formulation. […] Roots taken from plants 1, 2 and 5 weeks after CNMA or other treatments were placed in Petri dish bioassays and infested with untreated phylloxera eggs.
Eggs of various age classes were placed on Whatman #1 filter paper moistened with enough treatment solution to form a meniscus about halfway up the sides of the eggs. The pieces of filter paper with eggs were maintained in sealed plastic Petri dishes at […] until they were 7 days old and then hatched individuals were counted. Hatch was considered successful if the […]

[2] = system: silverleaf white fly, Bemisia argentifolii; assay: silver leaf white fly Petri dish bioassay; settings: for Silver Leaf White Fly Mortality (Percent): no aldehyde: T80 (10 g), NaHCO3, T80(2%) + NaHCO3 (6%) or Malathion (250 ppm) alone
Experimental: (§1) Activity of cinnamic aldehyde and/or coniferyl aldehyde against black bean aphid, Tetranychus urticae, and silverleaf white fly, Bemisia argentifolii was determined as follows:
Petri dishes (60 mm) were treated with cinnamic aldehyde at 10-25,000 ppm in 2% Tween 80 and 6% NaHCO3 dissolved in water, and allowed to air dry. Twenty adult silver leaf white fly were put in each dish, (replicate 10 times). The mortality after three hours in contact with a treated plate, was compared to that of silver leaf white fly in petri dishes treated only with diluent. Malathion at 250 ppm was used as a positive control.

powdery mildew = powdery mildew on roses, disease rating / MPDC after foliar spray; type: in vivo, Sphaerotheca pannosa; settings: for Mean % Disease Control, rose powdery mildew: no aldehyde: additive alone (T80 10 g, NaHCO3 80 g) or Benomyl per manufacturer instructions, four days
Experimental: Each formulation is evaluated for its effect on specific pests and/or plant host using any of the compounds of formula (1) as well as other components of the formulation such as Tween 80 and/or sodium bicarbonate, with the combination and effective amount of each component adapted for a particular application to minimize toxicity while maintaining or increasing the antipathogenic effect of the formulation. The effective amount of each component may be determined by systematically varying the amount of that component in a test formulation, treating a plant of interest with the test formulation, and monitoring the level of pest infestation compared to an untreated control plant. An effective amount of a test component is identified as the amount that controls the growth of the pathogen on the plant host, thus reducing the disease rating of the plant. The mean percentage disease […] (MPDC) can be calculated for each particular application. MPDC is defined by the formula: [formula] Eight cultivars of rose were tested to investigate the effect of a cinnamic aldehyde/NaHCO3 formulation on rust and spores. The cultivars used included Moss unnamed (Moss), […], Rosette Delize (Hybrid Tea), Rosa Rugosa Rubra (Rugosa), Abel Morrison (Hybrid perpetual), John Laing, Betty Prior, and Rose de Roi. […] The Hybrid Tea and Hybrid perpetual were rated 3 and the Rugosa was rated 1. […] Control plants received no treatment. […] Moreover, the treatment appeared to have induced systemic resistance. […] Plants were an average of 0.86 m apart. […] Controls were untreated plants. […] Weekly reviews were made of the various plants. […] of infected rose in dedicated experimental rose gardens were used. Four Mrs. John Laing (Hybrid perpetual) and two Marchionese of Londonderry (Hybrid perpetual) rose plants were treated with one of two formulations of coniferyl aldehyde. […] The first two Mrs. […] Mrs. […] Both Marchionese of Londonderry plants (P5 and P6) were rated 5 for powdery mildew and rust after Paulus and Nelson (supra). Two treatment formulae were used for this trial. […] Control plants were sprayed with water alone. The change in the rating from pre-treatment to post-treatment was calculated as the mean percentage of disease control (MPDC) as described herein. A three treatment experiment with cinnamic aldehyde formula, coniferyl aldehyde formula and combined cinnamic and coniferyl aldehyde formula was carried out on field grown roses known to be susceptible to powdery mildew. The plants were blocked by variety before fungicide treatments and were randomized as to the plants. Two varieties were used in each of the three experiments described below. […] In experiment 3 Comte de Chambord (Portland) and Madame Pierre Oger (Bourbon) were used. In Experiment 1, the effect of cinnamic aldehyde alone and in combination with Tween 80 and/or NaHCO3 component was evaluated in experiment 2 the effect of coniferyl aldehyde alone and in combination with Tween 80 and/or NaHCO3 was evaluated and in experiment 3 a combination of cinnamic aldehyde and coniferyl aldehyde with Tween 80 and/or NaHCo3 was evaluated. […] See Table 3 for the treatment protocol; formula 1 was used for these experiments. […] Plants were evaluated using the Paulus/Nelson scale just prior to and four days after treatment. […] Moreover, cinnamic aldehyde, coniferyl aldehyde, Tween 80 and NaHCO3 are used in the food industry and there is likely to be little toxicological risk to the consumer or handler from any horticultural or food crop sprayed in this way. Similarly, as these chemicals leave no toxic residue, there is little chance of any detrimental effect on the wider environment, and their use is likely to be compatible with current biological control methods such as beneficial insects and/or microorganisms.

phylloxera-biotype A = assay: greenhouse Merlot vines infested with phylloxera, leaf spray, disease rating of roots; type: in vivo, Daktulosphaira vitifoliae; settings: Experiment 2, 200 ppm Malathion leaf treatment
Source text: For greenhouse tests, one year old potted V. vinifera cultivar merlot plants were used that had been obtained from Foundation Plant Material Service, University of California, Davis. The plants were potted in 10 cm diameter pots and were infested with phylloxera 5 weeks prior to treatment. At the time of spraying with a treatment solution, plant pots were placed in a plastic bag so that chemical runoff from the leaf sprays would not drip into the soil. The plants were sprayed to runoff with a household 1 liter-capacity plastic spray bottle. Plants were allowed to air dry outside and then replaced in the greenhouse. At intervals thereafter, the roots were separated from the potting mix and total phylloxera population estimated.

grape phylloxera = grape phylloxera adult and nymphal mortality, root dip; type: in vivo, Daktulosphaira vitifoliae; settings: Daktulosphaira vitifoliae, 120 h; positive control 250 ppm malathion in water; root dip; 5 days; read-out: mortality of adults and nymphs
Experimental: Approximately twenty four eggs of phylloxera were allowed to develop for up to 30 days on standard excised grape roots. At around 30 days, some of the insects were nymphs while others were adults. New eggs were removed during the process. Insect infected roots were submerged into a test formula for 6 seconds then set aside to dry in the air. The percentage of live insects, as defined by growth, oviposition or limb movement, was determined after 5 days. An insect was considered dead if it abandoned its feed site.
In an initial test, doses of 20,000 ppm cinnamic aldehyde in water (i.e., 2% cinnamic aldehyde) with various additives were evaluated. Cinnamic aldehyde without any additives produced 83.3% mortality. With-1% Tween 80 added, 91.7% mortality was seen. With 6% NaHCO3 added to a solution of 2% cinnamic aldehyde, 91.7% mortality was seen. With 1% Tween 80 and 6% NaHCO3 added to a solution of 2% cinnamic aldehyde, 100% mortality was seen. Water with no additives produced no mortality, while a positive control solution of 250 ppm malathion in water gave 100% mortality.
For nymph and adult tests, eggs were placed on excised root pieces similar to those used for rearing purposes and these were sealed in Petri dishes and held at 24° C. for 18-25 days to allow insects to hatch, initiate feeding sites and develop. At about this time about half the population was in the adult stage. Prior to testing, the population on each root was determined as well as the developmental stage of each insect. Eggs were removed. These root pieces were then dipped for 5 sec into test solutions and allowed to air dry before they were returned to Petri dishes, sealed and placed back in the temperature chamber at 24° C. Mortality was determined after 5 days. Insects were considered dead if they appeared black or desiccated and if they had not developed since the pre-treatment reading and had laid no or few new eggs.

[3] = system: black bean aphid, Tetranychus urticae; assay: aphid Petri dish bioassay; settings: malathion 250 ppm, positive control; three hours contact
Experimental: as §1
Petri dishes (60 mm) were treated with cinnamic aldehyde at 10-25,000 ppm in 2% Tween 80 and 6% NaHCO3 dissolved in water, and the dishes allowed to air dry. Twenty adult aphids (Tetranychus urticae) were put in each dish, (replicate 10 times). The mortality after three hours in contact with a treated plate was compared to that of aphids in petri dishes treated only with diluent. Malathion (250 ppm) was used as a positive control.

[4] = system: root-knot nematode, Meloidogyne javanica; type: in vivo; settings: controls: saponin alone (1:60 dilution of 10 brix concentrate; compared with 100% mortality), Ethanol (95%)
Experimental: In a double blind study, concentrations of the subject aldehyde compounds were tested for activity against root-knot nematode, Meloidogyne javanica. Nematodes were put in direct contact with the chemical and at 24 hour intervals, mortality was assessed both visually and by probing. Meloidogyne javanica were produced using hydroponics. The nematodes were harvested and used within 24 hours.
Approximately 100 nematodes in 0.07 mls of water were pipetted into a syracuse dish (Fisher) and 1 ml of test formulation was immediately pipetted into each dish. The dishes were then placed into plastic bags to retain moisture and prevent evaporation. Four syracuse dishes were used for each solution test formulation. […] Moving nematodes were counted as living.

SMILES: O=CCCCC=O [Glutaraldehyde, reference compound]
- Colony diameter (cm) [1]: 3.663 cm and 3.66 cm

SMILES: CNC(=O)Oc1cccc2c1OC(C)(C)C2 [Carbofuran, reference compound]
- nymphs that died in the shell (DIS) (grape phylloxera eggs): 100%

SMILES: O=C([O-])O.[Na+] [NaHCO3]
- Silver Leaf White Fly Mortality (Percent) [2]: 22.9%
- Mean % Disease Control, rose powdery mildew (powdery mildew): 44%

SMILES: CCOC(=O)CC(SP(=S)(OC)OC)C(=O)OCC (stereo not shown) [malathion, reference compound]
- Average disease rating (0-4) (phylloxera-biotype A; 1 day post treatment): 4 (3)
- Average disease rating (0-4) (phylloxera-biotype A; 2 days post treatment): 2.3(3)
- Average disease rating (0-4) (phylloxera-biotype A; 7 days post treatment): 0(2)
- silver leaf white fly killed ([2]; malathion 250 ppm, positive control, three hours contact): 100%
- mortality at 250 ppm (grape phylloxera): 100%
- nymphs that died in the shell (DIS) (grape phylloxera eggs): 100%
- aphids killed [3]: 100%

SMILES: CCCCNC(=O)n1c(NC(=O)OC)nc2ccccc21 [Benomyl, reference compound]
- Colony diameter (cm) [1]: 0.000 cm and 0 cm
- Mean % Disease Control, rose powdery mildew (powdery mildew): 79%
- Mean disease control (powdery mildew; sprayed roses, parallel experiments): approximately 80%

SMILES: CCCCCCCC/C=C\CCCCCCCC(=O)OCCOCC(OCCO)C1OCC(OCCO)C1OCCO (stereo not shown) [T80, Tween 80]
- Silver Leaf White Fly Mortality (Percent) [2]: 14.5%
- Mean % Disease Control, rose powdery mildew (powdery mildew): 0%

SMILES: CCO [Ethanol, reference compound]
- mortality at 24 hours [4]: killed all nematodes

SMILES: COC(=O)C=Cc1ccccc1 [Cinnamyl acid methyl ester]
- approximate egg hatch LD 50 (grape phylloxera eggs): > 320 ppm and < 560 ppm

SMILES: OCC=Cc1ccccc1 [Cinnamyl alcohol]
- approximate egg hatch LD 50 (grape phylloxera eggs): > 320 ppm and < 560 ppm
